The structures appear in SMILES notation.

One assay has as its target RET V804L (Homo sapiens, UniProt P07949, V804L). Kind of assay: Kinase panel assay (SelectScreen Kinase Profiling, Invitrogen). It counts as biochemical. Particulars: 1000 nM of compound B26. The procedure: (§1) The kinase panel assay of compound B26 of this invention was performed by SelectScreen® Kinase Profiling Services of Invitrogen. The inhibitory effects of 1000 nM of compound B26 against various kinases whom shown >50% inhibitory effects are summarized in following Table 5.

The target of another assay is KDR (VEGFR2) (Homo sapiens, UniProt P35968). Described as above. To be noted: 1000 nM of compound B26. It counts as biochemical. As for the experimental part:
as §1

Another assay has as its target FLT4 (VEGFR3) (Homo sapiens, UniProt P35916). The description is as above. It counts as biochemical. Particulars: 1000 nM of compound B26. The procedure:
as §1

In a further assay the target is NTRK1 (TRKA) (Homo sapiens, UniProt P04629). The description is as above. To be noted: 1000 nM of compound B26. It counts as biochemical. The procedure:
as §1

The target of a further assay is SRC N1 (Homo sapiens, UniProt P12931). The description is as above. Format: biochemical. To be noted: 1000 nM of compound B26. The procedure: as §1
For another assay, the target named is FLT3 D835Y (Homo sapiens, UniProt P36888, D835Y). Described as above. Particulars: 1000 nM of compound B26. Format: biochemical. As for the experimental part: as §1
A further assay deals with CSF1R (FMS) (Homo sapiens, UniProt P07333). The description is as above. Format: biochemical. Particulars: 1000 nM of compound B26. The procedure:
as §1

Another assay has as its target KIT (Homo sapiens, UniProt P10721). The assay is described as above. To be noted: 1000 nM of compound B26. Format: biochemical. The procedure: as §1
The target in a further assay is FGFR3 K650E (Homo sapiens, UniProt P22607, K650E). The description is as above. To be noted: 1000 nM of compound B26. It counts as biochemical. As for the experimental part: as §1
Assay [1] has as its system MV4-11 (FLT3-ITD) cell line. Description: In vitro cell activity assay (MTT cell viability, 72 hours). Format: cell-based. To be noted: Homo sapiens, 72 hours at 37° C., 10,000 cells per well, read-out: IC50 against MV4-11. A digest of the protocol:
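Compound serial dilutions applied to MV4-11 (FLT3-ITD) cells, 10,000 per well, for 72 hours at 37° C. Viability by MTT, formazan dissolved in DMSO, absorbance at 600 nm; IC50 by nonlinear regression as concentration halving absorbance versus untreated cells.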

KIT, sequence (P10721 26-976): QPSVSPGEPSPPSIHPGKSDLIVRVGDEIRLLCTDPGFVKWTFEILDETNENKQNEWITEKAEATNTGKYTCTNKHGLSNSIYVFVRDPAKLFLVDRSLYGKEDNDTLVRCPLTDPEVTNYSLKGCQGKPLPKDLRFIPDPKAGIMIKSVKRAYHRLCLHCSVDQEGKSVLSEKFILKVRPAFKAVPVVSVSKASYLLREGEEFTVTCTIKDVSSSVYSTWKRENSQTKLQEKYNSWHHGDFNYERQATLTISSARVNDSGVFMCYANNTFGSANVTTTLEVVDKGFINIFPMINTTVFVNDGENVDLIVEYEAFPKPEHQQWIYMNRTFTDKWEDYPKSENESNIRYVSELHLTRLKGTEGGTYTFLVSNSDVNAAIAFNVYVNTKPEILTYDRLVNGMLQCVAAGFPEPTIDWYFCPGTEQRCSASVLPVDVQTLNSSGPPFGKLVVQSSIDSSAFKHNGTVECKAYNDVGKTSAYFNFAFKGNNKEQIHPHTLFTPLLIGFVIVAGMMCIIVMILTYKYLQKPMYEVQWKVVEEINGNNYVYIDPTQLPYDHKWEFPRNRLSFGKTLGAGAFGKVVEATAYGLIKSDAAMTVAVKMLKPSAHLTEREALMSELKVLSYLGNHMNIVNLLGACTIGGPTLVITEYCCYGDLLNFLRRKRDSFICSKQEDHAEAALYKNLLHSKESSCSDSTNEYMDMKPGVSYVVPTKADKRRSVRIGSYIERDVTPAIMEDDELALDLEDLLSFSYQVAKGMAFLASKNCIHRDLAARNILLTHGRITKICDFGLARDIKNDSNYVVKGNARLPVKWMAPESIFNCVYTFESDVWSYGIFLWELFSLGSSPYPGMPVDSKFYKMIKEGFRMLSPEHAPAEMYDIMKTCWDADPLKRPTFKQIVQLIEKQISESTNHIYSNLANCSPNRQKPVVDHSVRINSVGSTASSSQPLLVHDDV
NTRK1 (TRKA), sequence (P04629 33-796): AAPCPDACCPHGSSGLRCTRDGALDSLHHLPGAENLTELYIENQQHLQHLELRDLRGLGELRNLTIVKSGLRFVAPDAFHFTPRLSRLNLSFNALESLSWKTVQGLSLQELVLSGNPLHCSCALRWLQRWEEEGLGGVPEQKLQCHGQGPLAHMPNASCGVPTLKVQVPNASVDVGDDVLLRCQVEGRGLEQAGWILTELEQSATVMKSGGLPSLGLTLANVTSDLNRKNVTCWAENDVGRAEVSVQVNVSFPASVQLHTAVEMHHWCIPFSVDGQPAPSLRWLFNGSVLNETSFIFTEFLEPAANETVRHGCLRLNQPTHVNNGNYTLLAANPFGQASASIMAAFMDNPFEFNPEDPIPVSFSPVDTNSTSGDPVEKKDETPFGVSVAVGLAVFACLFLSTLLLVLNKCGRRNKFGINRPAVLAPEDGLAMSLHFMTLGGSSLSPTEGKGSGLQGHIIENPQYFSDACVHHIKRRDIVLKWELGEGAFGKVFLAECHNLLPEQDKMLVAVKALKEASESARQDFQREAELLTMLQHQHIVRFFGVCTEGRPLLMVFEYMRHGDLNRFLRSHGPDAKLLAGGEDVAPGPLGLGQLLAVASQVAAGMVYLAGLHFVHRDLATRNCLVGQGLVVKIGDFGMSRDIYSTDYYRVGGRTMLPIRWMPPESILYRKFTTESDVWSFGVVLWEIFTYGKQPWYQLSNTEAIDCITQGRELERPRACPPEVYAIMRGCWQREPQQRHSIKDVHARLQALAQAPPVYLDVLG
FGFR3 K650E, sequence (P22607 23-806 K650E): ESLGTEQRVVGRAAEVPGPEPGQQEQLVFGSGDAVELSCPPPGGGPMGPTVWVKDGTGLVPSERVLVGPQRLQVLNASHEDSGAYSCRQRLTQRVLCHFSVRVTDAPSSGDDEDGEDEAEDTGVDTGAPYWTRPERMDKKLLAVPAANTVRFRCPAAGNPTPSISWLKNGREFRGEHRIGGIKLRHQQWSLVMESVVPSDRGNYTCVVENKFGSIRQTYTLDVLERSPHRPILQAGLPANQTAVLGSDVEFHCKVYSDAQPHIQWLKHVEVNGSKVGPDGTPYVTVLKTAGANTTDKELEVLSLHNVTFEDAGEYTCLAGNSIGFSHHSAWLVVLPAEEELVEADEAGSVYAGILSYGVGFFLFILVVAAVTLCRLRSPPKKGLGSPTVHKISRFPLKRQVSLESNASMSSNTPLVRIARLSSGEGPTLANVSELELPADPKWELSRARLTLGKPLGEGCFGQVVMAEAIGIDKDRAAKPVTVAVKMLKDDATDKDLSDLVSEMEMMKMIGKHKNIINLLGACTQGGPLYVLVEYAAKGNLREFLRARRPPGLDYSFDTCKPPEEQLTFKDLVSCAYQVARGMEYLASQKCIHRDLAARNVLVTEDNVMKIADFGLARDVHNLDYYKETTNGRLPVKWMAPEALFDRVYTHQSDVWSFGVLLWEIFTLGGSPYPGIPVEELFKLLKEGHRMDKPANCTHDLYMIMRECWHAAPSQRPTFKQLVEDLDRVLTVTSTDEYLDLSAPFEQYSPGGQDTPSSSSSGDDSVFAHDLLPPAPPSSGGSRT
RET V804L, sequence (P07949 29-1114 V804L): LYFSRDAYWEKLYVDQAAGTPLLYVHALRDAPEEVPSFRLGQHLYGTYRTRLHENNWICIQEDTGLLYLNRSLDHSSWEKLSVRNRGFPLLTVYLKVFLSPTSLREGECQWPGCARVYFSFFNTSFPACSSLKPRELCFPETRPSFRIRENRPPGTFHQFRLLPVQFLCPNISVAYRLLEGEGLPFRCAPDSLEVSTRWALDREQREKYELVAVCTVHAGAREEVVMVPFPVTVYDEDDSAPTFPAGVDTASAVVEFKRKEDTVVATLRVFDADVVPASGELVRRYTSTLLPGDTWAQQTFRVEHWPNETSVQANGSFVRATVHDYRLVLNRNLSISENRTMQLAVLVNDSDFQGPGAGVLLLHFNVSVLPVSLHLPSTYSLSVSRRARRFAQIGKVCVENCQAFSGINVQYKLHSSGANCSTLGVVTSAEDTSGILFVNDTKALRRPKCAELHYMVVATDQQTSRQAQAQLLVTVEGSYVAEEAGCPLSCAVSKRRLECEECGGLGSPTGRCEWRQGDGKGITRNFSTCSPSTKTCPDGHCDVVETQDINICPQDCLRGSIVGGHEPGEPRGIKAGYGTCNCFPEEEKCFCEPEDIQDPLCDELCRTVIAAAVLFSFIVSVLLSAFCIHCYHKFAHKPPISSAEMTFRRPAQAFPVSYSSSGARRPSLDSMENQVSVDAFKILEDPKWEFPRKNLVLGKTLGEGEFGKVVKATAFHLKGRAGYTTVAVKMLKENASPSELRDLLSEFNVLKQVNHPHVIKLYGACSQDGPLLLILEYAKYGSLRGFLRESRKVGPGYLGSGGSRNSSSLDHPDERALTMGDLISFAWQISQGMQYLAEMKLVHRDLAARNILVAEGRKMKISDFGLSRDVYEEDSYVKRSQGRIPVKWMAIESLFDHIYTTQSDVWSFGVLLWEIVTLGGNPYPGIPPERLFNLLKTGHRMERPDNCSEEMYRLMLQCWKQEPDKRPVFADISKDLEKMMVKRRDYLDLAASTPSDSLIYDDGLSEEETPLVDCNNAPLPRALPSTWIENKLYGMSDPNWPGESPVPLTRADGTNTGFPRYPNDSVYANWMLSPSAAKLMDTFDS
SRC N1, sequence (P12931 1-542 isoform P12931-2): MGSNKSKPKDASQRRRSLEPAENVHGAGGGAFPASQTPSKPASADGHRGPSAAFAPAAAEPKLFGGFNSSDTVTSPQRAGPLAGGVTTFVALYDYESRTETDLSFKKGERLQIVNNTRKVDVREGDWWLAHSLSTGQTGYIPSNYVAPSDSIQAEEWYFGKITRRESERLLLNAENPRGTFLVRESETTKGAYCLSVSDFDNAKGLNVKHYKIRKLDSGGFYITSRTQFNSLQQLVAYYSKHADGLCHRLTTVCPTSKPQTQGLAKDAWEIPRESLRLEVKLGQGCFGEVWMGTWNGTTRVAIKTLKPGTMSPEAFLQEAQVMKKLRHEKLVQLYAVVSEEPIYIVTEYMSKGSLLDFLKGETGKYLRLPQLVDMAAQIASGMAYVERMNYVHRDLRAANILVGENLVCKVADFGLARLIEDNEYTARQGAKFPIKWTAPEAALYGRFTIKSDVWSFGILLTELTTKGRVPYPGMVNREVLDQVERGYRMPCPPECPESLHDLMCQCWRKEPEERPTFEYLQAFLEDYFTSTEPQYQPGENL
CSF1R (FMS), sequence (P07333 20-972): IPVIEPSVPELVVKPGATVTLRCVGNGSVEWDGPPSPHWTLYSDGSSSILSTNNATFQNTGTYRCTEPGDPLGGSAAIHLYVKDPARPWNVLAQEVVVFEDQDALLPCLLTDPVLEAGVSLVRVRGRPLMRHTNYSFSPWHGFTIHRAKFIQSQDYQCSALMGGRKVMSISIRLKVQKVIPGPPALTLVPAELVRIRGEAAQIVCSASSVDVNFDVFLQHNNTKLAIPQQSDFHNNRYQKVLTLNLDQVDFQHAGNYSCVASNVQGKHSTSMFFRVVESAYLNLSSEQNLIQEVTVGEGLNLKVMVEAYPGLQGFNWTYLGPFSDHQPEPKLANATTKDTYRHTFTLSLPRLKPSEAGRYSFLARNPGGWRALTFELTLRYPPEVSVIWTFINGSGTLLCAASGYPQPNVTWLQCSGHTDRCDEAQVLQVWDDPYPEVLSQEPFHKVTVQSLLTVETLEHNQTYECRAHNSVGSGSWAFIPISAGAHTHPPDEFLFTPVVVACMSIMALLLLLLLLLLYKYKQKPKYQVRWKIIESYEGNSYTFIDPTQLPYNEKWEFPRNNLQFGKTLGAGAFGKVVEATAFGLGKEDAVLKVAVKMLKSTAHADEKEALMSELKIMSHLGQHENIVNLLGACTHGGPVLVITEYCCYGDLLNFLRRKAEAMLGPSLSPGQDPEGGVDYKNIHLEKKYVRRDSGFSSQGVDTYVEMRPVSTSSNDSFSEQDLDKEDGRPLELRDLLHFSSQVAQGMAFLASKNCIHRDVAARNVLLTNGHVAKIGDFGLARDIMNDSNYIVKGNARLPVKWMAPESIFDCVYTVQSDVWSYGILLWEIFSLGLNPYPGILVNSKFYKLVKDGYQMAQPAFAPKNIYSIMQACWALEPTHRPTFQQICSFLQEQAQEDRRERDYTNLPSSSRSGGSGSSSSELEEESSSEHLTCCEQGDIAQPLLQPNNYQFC

Turning to `CN1CCN(c2ccc3[nH]c(-c4c5cccccc-5[nH]c4=O)nc3c2)CC1` [Compound B26], the inhibition (usually how much of the control response was suppressed) at 1 µM on RET V804L came out at 79%; against KDR (VEGFR2), 64%; against FLT4 (VEGFR3) it was 50%; against NTRK1 (TRKA) it was 89%; against SRC N1, 52%; at FLT3 D835Y it was 98%. The figures for the inhibition at 1 µM against CSF1R (FMS), on KIT and against FGFR3 K650E were 60%, 61% and 47%, respectively. The IC50 – broadly, the concentration needed to halve the response being measured – in assay [1] came out at 21.1 nM.

The values are drawn from US8492374B2, “Azaazulene compounds” (Industrial Technology Research Institute, priority 2009, dated 2013).
